From patent publication US20110250686A1 (CELLARTIS AB, priority 2006, published 2011)

Tested on: hepatocyte-like cells
Conditions: against VitroHES reference protocol

## C[C@@H]1C[C@H]2[C@@H]3CCC4=CC(=O)C=C[C@]4(C)[C@@]3(F)[C@@H](O)C[C@]2(C)[C@@]1(O)C(=O)CO [Dexamethasone]
  morphology / appearance of hepatocyte-like cells: improved the appearance of the HCLC
